The source of these data is patent publication US20070049593A1 (priority 2004, published 2007).

Counter-ions that a name gives are not always drawn.

The target in this assay is T1, HCV polymerase (Hepatitis C virus genotype 1b, UniProt P26663).
T1 construct: a region encoding NS5B (J Virol 1991 March, 65(3), 1105-13, 544 amino acids after deletion of 47 amino acids on the C-terminal); 6xHis (C); made in house; host or cells: Escherichia coli
The experiment in a line: biochemical. Also on record: species or system HCV BK strain. An outline of the steps:
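Recombinant HCV BK-strain NS5B (C-terminal 47 aa deleted, His6-tagged, E. coli), 0.5 μg/ml, run with 5 μg/ml in vitro-transcribed RNA template (polyU/3′X), ATP/GTP/CTP 50 μM, UTP 2 μM plus [3H]UTP, pH 7.5, 25° C, 90 min. TCA-precipitated RNA counted by scintillation; IC50 from activity with vs without compound.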

The term IC50 denotes the point on the concentration scale where inhibition reaches its midpoint.

T1 sequence (P26663 2420-2963): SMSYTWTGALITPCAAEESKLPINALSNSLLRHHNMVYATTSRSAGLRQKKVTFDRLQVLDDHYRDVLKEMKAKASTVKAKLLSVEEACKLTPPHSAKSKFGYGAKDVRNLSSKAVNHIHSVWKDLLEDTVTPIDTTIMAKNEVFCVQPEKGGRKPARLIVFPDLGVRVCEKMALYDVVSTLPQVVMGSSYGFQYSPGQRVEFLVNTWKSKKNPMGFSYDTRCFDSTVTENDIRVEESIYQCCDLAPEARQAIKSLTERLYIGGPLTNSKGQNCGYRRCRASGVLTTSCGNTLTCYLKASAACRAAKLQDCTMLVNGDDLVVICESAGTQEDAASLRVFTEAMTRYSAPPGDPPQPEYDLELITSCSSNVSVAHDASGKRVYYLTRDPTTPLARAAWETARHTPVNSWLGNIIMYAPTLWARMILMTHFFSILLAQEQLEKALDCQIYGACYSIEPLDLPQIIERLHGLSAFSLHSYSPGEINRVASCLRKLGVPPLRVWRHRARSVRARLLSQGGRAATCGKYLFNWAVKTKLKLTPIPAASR

Turning to `CCN(CCCCOC)CCN1CCn2c(c(C3CCCCC3)c3ccc(C(=O)O)cc32)-c2ccc(C)cc21` [Example 1-539, 13-cyclohexyl-5-{2-[N-ethyl-N-(4-methoxybutyl)amino]ethyl}-3-methyl-6,7-dihydro-5H-benzo[5,6][1,4]diazepino[7,1-a]indole-10-carboxylic acid dihydrochloride], the IC50 is less than 100 nM.
The compound `Cc1cc(COc2ccc3c(c2)N(CCN2CCCCC2)CCn2c-3c(C3CCCCC3)c3ccc(C(=O)O)cc32)no1` [Example 1-363, 13-cyclohexyl-3-(5-methylisoxazol-3-ylmethoxy)-5-[2-(piperidin-1-yl)ethyl]-6,7-dihydro-5H-benzo[5,6][1,4]diazepino[7,1-a]indole-10-carboxylic acid dihydrochloride] displayed an IC50 of less than 100 nM.
`COC(=O)c1cc2nc(C(C)(C)NC(=O)c3ccc4c(C5CCCCC5)c5n(c4c3)CCOc3cc(OC)ccc3-5)[nH]c2cc1OC` [Example 2-331, methyl 2-{1-[(12-cyclohexyl-3-methoxy-6,7-dihydro-5-oxa-7a-azadibenzo[a,e]azulene-9-carbonyl)amino]-1-methylethyl}-6-methoxy-1H-benzimidazole-5-carboxylate] came in with an IC50 of less than 100 nM.
The result for `COC(=O)c1ccc(C(=O)NCC(C)(C)NC(=O)c2ccc3c(C4CCCCC4)c4n(c3c2)CCOc2ccccc2-4)cc1` [Example 2-212, methyl N-{2-[(12-cyclohexyl-6,7-dihydro-5-oxa-7a-azadibenzo[a,e]azulene-9-carbonyl)amino]-2-methylpropyl}-terephthalamate] reads 100 to 1000 nM.
The result for `O=C(O)c1ccc2nc(NC(=O)c3ccc4c(C5CCCCC5)c5n(c4c3)CCOc3ccccc3-5)[nH]c2c1` [Example 2-268, 2-[(12-cyclohexyl-6,7-dihydro-5-oxa-7a-azadibenzo[a,e]azulene-9-carbonyl)amino]-3H-benzimidazole-5-carboxylic acid] reads 100 to 1000 nM; that for `COC1CCN(C(=O)CN2CCn3c(c(C4CCCCC4)c4ccc(C(=O)O)cc43)-c3ccccc32)CC1` [Example 1-36, 13-cyclohexyl-5-[2-(4-methoxypiperidin-1-yl)-2-oxoethyl]-6,7-dihydro-5H-benzo[5,6][1,4]diazepino[7,1-a]indole-10-carboxylic acid monohydrochloride], less than 100 nM; that for `COCC1CCCCN1CCN1CCn2c(c(C3CCCCC3)c3ccc(C(=O)O)cc32)-c2ccc(C)cc21` (centres unmarked) [Example 1-305, 13-cyclohexyl-5-[2-(2-methoxymethylpiperidin-1-yl)ethyl]-3-methyl-6,7-dihydro-5H-benzo[5,6][1,4]diazepino[7,1-a]indole-10-carboxylic acid dihydrochloride], less than 100 nM.
Compound `CCN(CCC1CCN(C(C)=O)CC1)c1cccc2c1OCCn1c-2c(C2CCCCC2)c2ccc(C(=O)O)cc21` [Example 2-232, 4-{N-[2-(1-acetylpiperidin-4-yl)ethyl]-N-ethylamino)-12-cyclohexyl-6,7-dihydro-5-oxa-7a-azadibenzo[a,e]azulene-9-carboxylic acid] yielded an IC50 of less than 100 nM.
In the case of `CCOc1ccc2c(c1)N(C)CCn1c-2c(C2CCCCC2)c2ccc(C(=O)NC3(C(=O)Nc4ccc(OC)c(/C=C/C(=O)O)c4)CCC3)cc21` [Example 1-619, (E)-3-[5-({1-[(13-cyclohexyl-3-ethoxy-5-methyl-6,7-dihydro-5H-benzo[5,6][1,4]diazepino[7,1-a]indole-10-carbonyl)amino]cyclobutanecarbonyl}amino)-2-methoxyphenyl]acrylic acid], the IC50 is less than 100 nM.
The compound `COc1ccc2c(c1)OCCn1c-2c(C2CCCCC2)c2ccc(C(=O)N[C@@H](Cc3ccc(O)cc3)c3nc(C)no3)cc21` [Example 2-388, N—[(S)-2-(4-hydroxyphenyl)-1-(3-methyl-1,2,4-oxadiazol-5-yl)ethyl]-12-cyclohexyl-3-methoxy-6,7-dihydro-5-oxa-7a-azadibenzo[a,e]azulene-9-carboxamide] came in with a concentration for half-maximal inhibition (IC50) of less than 100 nM.
The result for `CNC(=O)COc1ccc2[nH]c(C3(NC(=O)c4ccc5c(C6CCCCC6)c6n(c5c4)CCOc4cc(OC)ccc4-6)CCC3)nc2c1` [Example 2-527, N-[1-(5-methylcarbamoylmethoxy-1H-benzimidazol-2-yl)cyclobutyl]-12-cyclohexyl-3-methoxy-6,7-dihydro-5-oxa-7a-azadibenzo[a,e]azulene-9-carboxamide] reads less than 100 nM; that for `Cc1noc(C)c1COc1ccc2c(c1)N(CCN(C)C)CCn1c-2c(C2CCCCC2)c2ccc(C(=O)O)cc21` [Example 1-535, 13-cyclohexyl-5-(2-dimethylaminoethyl)-3-(3,5-dimethylisoxazol-4-ylmethoxy)-6,7-dihydro-5H-benzo[5,6][1,4]diazepino[7,1-a]indole-10-carboxylic acid dihydrochloride], less than 100 nM.
`Cc1ccc2c(c1)N(C1CCNCC1)CCn1c-2c(C2CCCCC2)c2ccc(C(=O)O)cc21` [Example 1-562, 13-cyclohexyl-3-methyl-5-(piperidin-4-yl)-6,7-dihydro-5H-benzo[5,6][1,4]diazepino[7,1-a]indole-10-carboxylic acid dihydrochloride] registered a half-maximal inhibitory concentration (IC50) of less than 100 nM.
`CCOc1ccc2c(c1)N(CCN1CCCC(CC)C1)CCn1c-2c(C2CCCCC2)c2ccc(C(=O)O)cc21` (centres unmarked) [Example 1-347, 13-cyclohexyl-3-ethoxy-5-[2-(3-ethylpiperidin-1-yl)ethyl]-6,7-dihydro-5H-benzo[5,6][1,4]diazepino[7,1-a]indole-10-carboxylic acid dihydrochloride]: the IC50 was less than 100 nM.
Regarding `O=C(O)c1ccc2c(C3CCCCC3)c3n(c2c1)CCN(CCc1cccnc1)c1ccccc1-3` [Example 1-181, 13-cyclohexyl-5-[2-(pyridin-3-yl)ethyl]-6,7-dihydro-5H-benzo[5,6][1,4]diazepino[7,1-a]indole-10-carboxylic acid dihydrochloride], the IC50 was less than 100 nM.
Take `NC(=O)c1ccc2c(C3CCCCC3)c3n(c2c1)CCOc1cc(OCc2cc(N4CCCC4=O)ccc2N2CCOCC2)ccc1-3` [Example 2-47, 12-cyclohexyl-3-[2-(morpholin-4-yl)-5-(2-oxopyrrolidin-1-yl)benzyloxy]-6,7-dihydro-5-oxa-7a-azadibenzo[a,e]azulene-9-carboxamide monohydrochloride]: the IC50 is less than 100 nM.
The result for `O=C(O)c1ccc2c(C3CCCCC3)c3n(c2c1)CCN(CCN1CCCCC1)c1cc(OCc2ccccc2)ccc1-3` [Example 1-211, 3-benzyloxy-13-cyclohexyl-5-[2-(piperidin-1-yl)ethyl]-6,7-dihydro-5H-benzo[5,6][1,4]diazepino[7,1-a]indole-10-carboxylic acid dihydrochloride] reads less than 100 nM; that for `Cc1nc(C(C)(C)NC(=O)c2ccc3c(C4CCCCC4)c4n(c3c2)CCOc2ccccc2-4)n(CC(=O)N(C)C)c1C` [Example 2-293, N-[1-(1-dimethylcarbamoylmethyl-4,5-dimethyl-1H-imidazol-2-yl)-1-methylethyl]-12-cyclohexyl-6,7-dihydro-5-oxa-7a-azadibenzo[a,e]azulene-9-carboxamide], 100 to 1000 nM.
Take `O=C(O)c1ccc2c(C3CCCCC3)c3n(c2c1)CCN(CCN1CCCCC1)c1ccc(Cl)cc1-3` [Example 1-176, 2-chloro-13-cyclohexyl-5-[2-(piperidin-1-yl)ethyl]-6,7-dihydro-5H-benzo[5,6][1,4]diazepino[7,1-a]indole-10-carboxylic acid dihydrochloride]: the half-inhibitory concentration (IC50) is less than 100 nM.
Consider `CC(C)(C)NC(=O)c1ccc2c(C3CCCCC3)c3n(c2c1)CCOc1ccccc1-3` [Example 2-165, N-tert-butyl-12-cyclohexyl-6,7-dihydro-5-oxa-7a-azadibenzo[a,e]azulene-9-carboxamide], for which the IC50 lay within 100 to 1000 nM.
With `O=C(CN1CCOCC1)Nc1ccc(N2CCOCC2)c(COc2ccc3c(c2)OCCn2c-3c(C3CCCCC3)c3ccc(C(=O)O)cc32)c1` [Example 2-21, 12-cyclohexyl-3-{2-(morpholin-4-yl)-5-[2-(morpholin-4-yl)acetylamino]benzyloxy}-6,7-dihydro-5-oxa-7a-azadibenzo[a,e]azulene-9-carboxylic acid dihydrochloride], the IC50 is less than 100 nM.
`O=C(O)c1ccc2c(C3CCCCC3)c3n(c2c1)CCOc1c(NCCN2CCCCC2)cccc1-3` [Example 2-478, 12-cyclohexyl-4-[2-(piperidin-1-yl)ethylamino]-6,7-dihydro-5-oxa-7a-azadibenzo[a,e]azulene-9-carboxylic acid dihydrochloride] displayed an IC50 of less than 100 nM.
As for `COC1CCCN(CCN2CCn3c(c(C4CCCCC4)c4ccc(C(=O)O)cc43)-c3ccccc32)C1` (centres unmarked) [Example 1-151, 13-cyclohexyl-5-[2-(3-methoxypiperidin-1-yl)ethyl]-6,7-dihydro-5H-benzo[5,6][1,4]diazepino[7,1-a]indole-10-carboxylic acid dihydrochloride], the figure is less than 100 nM; as for `Cc1ccc2c(c1)N(CCN1CCCC(COC(C)C)C1)CCn1c-2c(C2CCCCC2)c2ccc(C(=O)O)cc21` (centres unmarked) [Example 1-407, 13-cyclohexyl-5-[2-(3-isopropoxymethylpiperidin-1-yl)ethyl]-3-methyl-6,7-dihydro-5H-benzo[5,6][1,4]diazepino[7,1-a]indole-10-carboxylic acid dihydrochloride], less than 100 nM; as for `CCN1CCn2c(c(C3CCCCC3)c3ccc(C(=O)O)cc32)-c2ccc(OC)cc21` [Example 1-474, 13-cyclohexyl-5-ethyl-3-methoxy-6,7-dihydro-5H-benzo[5,6][1,4]diazepino[7,1-a]indole-10-carboxylic acid], less than 100 nM.
In turn, `CC(C)(NC(=O)c1ccc2c(C3CCCCC3)c3n(c2c1)CCOc1ccccc1-3)C(=O)N1CCC(O)C1` (centres unmarked) [Example 2-322, N-[2-(3-hydroxypyrrolidin-1-yl)-1,1-dimethyl-2-oxoethyl]-12-cyclohexyl-6,7-dihydro-5-oxa-7a-azadibenzo[a,e]azulene-9-carboxamide] returned an IC50 of less than 100 nM.
